Experiments:
[1] = system: PC3M reporter cell line stably expressing the PTB-GFP; experiment: ATP quantitation assay (ATPLite); format: cell-based, human; conditions: Table 4, PC3M cells, 24 hrs incubation; for IC50: Homo sapiens, PC-3M
Method: This follow-up assay was conducted to measure the effect of compounds on cell health by measuring ATP levels (ATPLite™). ATPLite™ is an ATP monitoring system based on firefly (Photinus pyralis) luciferase. The level of ATP in a metabolically active cell is a general marker for its viability. ATP levels are often reduced during necrosis or apoptosis. In this assay, the luciferase enzyme catalyzes the conversion of the added substrate D-luciferin to oxyluciferin and light with ATP. Thus, the emitted light is proportional to the ATP concentration. For this assay, the highly metastatic PC3M reporter cell line stably expressing the PTB-GFP was provided by Professor Sui Huang of Northwestern University. The media and cell culture reagents were purchased from Invitrogen (Carlsbad, Calif.), ATPLite™ came from PerkinElmer.

[2] = system: PC3M cell line that stably expresses GFP-PTB to mark PNCs; experiment: High content assay for PNC detection (reduction of PNC prevalence); format: cell-based, human; conditions: Table 4, PC3M GFP-PTB cells, 16 hrs incubation; for IC50: Homo sapiens, PC-3M
From the text: The quantitative output for this assay is the reduction of PNC prevalence. The PNC can be detected in living cells by the expression of a green fluorescent protein (GFP) tagged to the PNC localized protein, PTB. A PC3M cell line was used that stably expresses GFP-PTB to mark PNCs. This method eliminates the need for immunofluorescent staining.
The IN Cell Analyzer 1000 automated fluorescent imaging system (GE Healthcare, Piscataway, N.J.) was used for automated image acquisition. […] The instrument acquired images of each well in a 1536-well plate with a laser-based autofocus system. To score PNC prevalence in a high-content throughput, the Multi-Target Analysis (MTA) algorithm (GE Healthcare, Investigator v3.5) to identify individual cells and granules (PNCs) within these cells was used. The nucleus was segmented via a region growing method (50 μm^2 minimum area) with light shading and noise removal to allow “touching” nuclei to be separated. Granules in the nucleus (PNCs) were segmented using a multiscale top hat method, which measures granules of 1 to 2 μm in size and used a smart masking method to identify the boundaries of each segmented granule. The algorithm was optimized and validated using positive and negative controls (50 μM camptothecin and DMSO, respectively). In particular, the MTA algorithm allows for the identification of multiple subcellular compartments and organelles (or granules) within those compartments. In this instance, the algorithm's capability to identify objects within the same color channel that only differ in size or fluorescent intensity was utilized. Also, the algorithm allows for building complex hierarchical classification systems, using output measures within the algorithm to filter and define subpopulations. For this particular assay, PNC-positive cells were scored when 1 to 3 PNC granules were detected per nucleus. Cells that contained 0 granules were scored as PNC negative, and cells with >3 granules were assumed to be false positives (very few cells have more than 3 PNCs in one focus plane), and were also scored as PNC negative.

Compound	IC50 [1] [µM]	IC50 [2] [µM]	ATP IC50(μM) [1]	PNC IC50(μM) [2]
N=c1c2c(-c3ccccc3)c(-c3ccccc3)n(Cc3ccccc3)c2ncn1C1CCCC[C@H]1CO (some centres unmarked) [Compound 66]	76.4	0.296		
N=c1c2c(-c3ccccc3)c(-c3ccccc3)n(CCc3ccccc3)c2ncn1CCC1CCC(O)CC1 (centres unmarked) [Compound 67]	24.1	0.296		
N=c1c2c(-c3ccccc3)c(-c3ccccc3)n(CCc3ccccc3)c2ncn1C1CCCC[C@H]1O (some centres unmarked) [Compound 68]	38.3	0.296		
CO[C@H]1CC[C@H](n2cnc3c(c(-c4ccccc4)c(-c4ccccc4)n3Cc3ccc(OC(F)(F)F)cc3)c2=N)CC1 [Compound 69]	19.2	0.372		
N=c1c2c(-c3ccccc3)c(-c3ccccc3)n(Cc3ccc(OC(F)(F)F)cc3)c2ncn1[C@H]1CC[C@H](O)CC1 [Compound 70]	24.1	0.372		
N=c1c2c(-c3ccccc3)c(-c3ccccc3)n(CCc3ccccc3)c2ncn1C1CCOCC1 [Compound 71]	121	0.372		
N=c1c2c(-c3ccccc3)c(-c3ccccc3)n(Cc3ccccc3)c2ncn1CCNc1ccncc1 [Compound 72]	24.1	0.469		
N=c1c2c(-c3ccccc3)c(-c3ccccc3)n(Cc3ccccc3)c2ncn1C[C@@H]1CCCC[C@H]1O [Compound 73]	24.1	0.59		
N=c1c2c(-c3ccccc3)c(-c3ccccc3)n(Cc3ccc(OC(F)(F)F)cc3)c2ncn1CCCO [Compound 74]	24.1	0.743		
N=c1c2c(-c3ccccc3)c(-c3ccccc3)n(Cc3ccc(OC(F)(F)F)cc3)c2ncn1C1CCOCC1 [Compound 75]	24.1	0.935		
COc1ccc(Cn2c(-c3ccccc3)c(-c3ccccc3)c3c(=N)n(CC4CCOCC4)cnc32)cc1 [Compound 76]	48.2	0.935		
COc1ccc(Cn2c(-c3ccccc3)c(-c3ccccc3)c3c(=N)n(CCCO)cnc32)cc1 [Compound 77]	96.1	1.18		
N=c1c2c(-c3ccccc3)c(-c3ccccc3)n(CC3CCCCC3)c2ncn1[C@H]1CC[C@H](O)CC1 [Compound 78]	30.4	1.48		
N=c1c2c(-c3ccccc3)c(-c3ccccc3)n(Cc3ccc(S(N)(=O)=O)cc3)c2ncn1CC1CCOCC1 [Compound 79]	383	1.87		
N=c1c2c(-c3ccccc3)c(-c3ccccc3)n(CC3CCCCC3)c2ncn1C1CCCC[C@H]1O (some centres unmarked) [Compound 80]	21.5	1.87		
N=c1c2c(-c3ccccc3)c(-c3ccccc3)n(CC3CC3)c2ncn1CCCO [Compound 81]	76.4	1.87		
N=c1c2c(-c3ccccc3)cn(Cc3ccccc3)c2ncn1C1CCN(Cc2ccccc2)CC1 [Compound 82]	30.4	2.35		
C[C@H]([C@@H](O)c1ccccc1)n1cnc2c(c(-c3ccccc3)c(-c3ccccc3)n2Cc2ccccc2)c1=N [Compound 83]	24.1	2.96		
N=c1c2c(-c3ccccc3)c(-c3ccccc3)n(Cc3ccc(OC(F)(F)F)cc3)c2ncn1[C@H]1CC[C@@H](O)CC1 [Compound 84]	24.1	2.96		
N=c1c2c(-c3ccccc3)c(-c3ccccc3)n(Cc3ccccc3)c2ncn1CC1CCOC1 (centres unmarked) [Compound 85]	24.1	2.96		
N=c1c2c(-c3ccccc3)c(-c3ccccc3)n(CC3CCCCC3)c2ncn1[C@H]1CC[C@@H](O)CC1 [Compound 86]	24.1	3.72		
N=c1c2c(-c3ccccc3)c(-c3ccccc3)n(CCc3ccccc3)c2ncn1CC1CCOC1 (centres unmarked) [Compound 87]	60.7	4.69		
N=c1c2c(-c3ccccc3)c(-c3ccccc3)n(Cc3ccccc3)c2ncn1CC1CCOCC1 [Compound 88]	30.4	4.69		
N=c1c2c(-c3ccc4c(c3)OCO4)c(-c3ccc4c(c3)OCO4)n(Cc3ccccc3)c2ncn1C1CCOCC1 [Compound 89]	24.1	5.9		
N=c1c2c(-c3ccccc3)c(-c3ccccc3)n(CCc3ccccc3)c2ncn1CC1CCOCC1 [Compound 90]	76.4	5.9		

Compound	IC50 [1] [µM]	IC50 [2] [µM]	ATP IC50(μM) [1]	PNC IC50(μM) [2]
N=c1c2c(-c3ccccc3)c(-c3ccccc3)n(Cc3ccc(OC(F)(F)F)cc3)c2ncn1CC1CCOCC1 [Compound 91]	30.4	5.9		
COc1ccc(-c2c(-c3ccc(OC)cc3)n(Cc3ccccc3)c3ncn([C@H]4CC[C@H](OC)CC4)c(=N)c23)cc1 [Compound 93]	60.7	7.43		
COc1ccc(-c2c(-c3ccc(OC)cc3)n(Cc3ccccc3)c3ncn([C@H]4CC[C@H](O)CC4)c(=N)c23)cc1 [Compound 94]	24.1	9.35		
N=c1c2c(-c3ccccc3)c(-c3ccccc3)n(CC3CCCCC3)c2ncn1CC1CCOCC1 [Compound 95]	24.1	11.8		
N=c1c2c(-c3ccccc3)c(-c3ccccc3)n(Cc3ccccc3)c2ncn1CCCN1CCN(c2ccccc2)CC1 [Compound 96]	30.4	11.8		
COc1ccc(Cn2c(-c3ccccc3)c(-c3ccccc3)c3c(=N)n(N4CCOCC4)cnc32)cc1 [Compound 98]	121	14.8		
N=c1c2c(-c3ccccc3)cn(Cc3ccccc3)c2ncn1C(CO)(CO)CO [Compound 99]		14.8	inactive	
COc1ccc(-c2c(-c3ccc(OC)cc3)n(Cc3ccccc3)c3ncn(C4CCCC[C@H]4O)c(=N)c23)cc1 (some centres unmarked) [Compound 100]	48.2	14.8		
N=c1c2c(-c3ccccc3)c(-c3ccccc3)n(CC3CCCCC3)c2ncn1C[C@H]1CCCC[C@@H]1O [Compound 101]	24.1	14.8		
N=c1c2c(-c3ccccc3)c(-c3ccccc3)n(Cc3ccco3)c2ncn1Cc1ccccc1 [Compound 102]	25.7	15.8		
COc1ccc(-c2c(-c3ccc(OC)cc3)n(Cc3ccccc3)c3ncn(CCO)c(=N)c23)cc1 [Compound 103]	24.1	18.7		
COc1ccc(-c2c(-c3ccc(OC)cc3)n(Cc3ccccc3)c3ncn(C4CCOCC4)c(=N)c23)cc1 [Compound 104]	30.4	23.5		
N=c1c2c(-c3ccccc3)c(-c3ccccc3)n(Cc3ccc(S(N)(=O)=O)cc3)c2ncn1CCCO [Compound 105]	304	23.5		
N=c1c2c(-c3ccccc3)c(-c3ccccc3)n(CC3CCCCC3)c2ncn1CCCO [Compound 106]	30.4	23.5		
N=c1c2c(-c3ccccc3)c(-c3ccccc3)n(Cc3ccco3)c2ncn1CCCN1CCOCC1 [Compound 107]	32.4	25		
N=c1c2c(-c3ccccc3)c(-c3ccccc3)n(Cc3ccccc3)c2ncn1[C@H](CO)Cc1ccccc1 [Compound 108]	38.3	29.6		
N=c1c2c(-c3ccccc3)cn(Cc3ccccc3)c2ncn1CCCCCO [Compound 109]	96.1	46.9		
N=c1c2c(-c3ccccc3)cn(Cc3ccc(Br)cc3)c2ncn1CCCN1CCN(c2ccccc2)CC1 [Compound 110]	30.4	46.9		
N=c1c2c(-c3ccccc3)cn(Cc3ccccc3)c2ncn1[C@H](CO)Cc1ccccc1 [Compound 111]	121	93.5		
COc1ccc(Cn2c(-c3ccccc3)c(-c3ccccc3)c3c(=N)n([C@H](C)[C@@H](O)c4ccccc4)cnc32)cc1 [Compound 112]	60.7			inactive
COc1ccc(-c2c(-c3ccc(OC)cc3)n(Cc3ccccc3)c3ncn(C4CCCC[C@H]4CO)c(=N)c23)cc1 (some centres unmarked) [Compound 113]	30.4			inactive
COC(=O)C[C@H](C(=O)OC)n1cnc2c(c(-c3ccccc3)cn2Cc2ccc(Br)cc2)c1=N [Compound 114]			inactive	inactive
COCCn1cnc2c(c(-c3ccccc3)cn2Cc2ccccc2)c1=N [Compound 115]	121			inactive
CC[Si](CC)(CC)OCCCn1cnc2c(c(-c3ccccc3)cn2Cc2ccc(Br)cc2)c1=N [Compound 116]			inactive	inactive
